Earlier results as cited in publication PMC8228323, “Biodegradation of L-Valine Alkyl Ester Ibuprofenates by Bacterial Cultures” (Materials, 2021).

Key:
[1] = parameters: method as in PMID 20111784; settings: CO2 released, 0 to 28 days
microorganisms = test system: microorganisms; parameters: method as in PMID 22644530, PMID 23262323, doi:10.4314/jasem.v25i3.5, PMID 33724810, PMID 33601200; settings: at the applied concentration

| Structure (SMILES) | Degree of biodegradability [1] | Inhibition of microbial activity (microorganisms) |
| --- | --- | --- |
| CCCCCCCCCCCCOS(=O)(=O)[O-].[Na+] [SDS, sodium dodecyl sulfate] | about 95% | – |
| CC(C)Cc1ccc(C(C)C(=O)O)cc1 (centres unmarked) [IBU, ibuprofen] | – | did not inhibit the microbial activity |
| CCCCCCCCOS(=O)(=O)[O-].CCOCCOC(=O)Cn1cc[n+](C)c1 [[EtOCH2CH2OCOCH2min][OctOSO3]] | 59% | – |
| CCCCCCCCOS(=O)(=O)[O-].CCCCOCCOC(=O)Cn1cc[n+](C)c1 [[BuOCH2CH2OCOCH2min][OctOSO3]] | more than 60% | – |
| CCCCCCCCOS(=O)(=O)[O-].CCCOCCOC(=O)Cn1cc[n+](C)c1 [[PrOCH2CH2OCOCH2min][OctOSO3]] | more than 60% | – |
